# Non-standard residues stand in square brackets, D forms with d. Residues, ends and D or L forms follow the SMILES beside them. *: point of attachment. Hexanoyl = CCCCCC(=O)*; Ahx = NCCCCCC(=O)O
# Legend:
# [1] = system: primary rat cortical neurons; assay: Neuroprotection, Cell Titer-Glo cell viability assay; format: cell-based; conditions: for percentage of recovery of cell viability: 1 µM, 24 h
# Description: A Cell Titer-Glo (CTG) Luminescent Cell Viability Assay (Promega, Cat #G7571, Madison, Wisconsin) was used to assess the neuroprotective potential of fosgo-AM. Brain cortices were dissected from P1–3 rat pups and homogenized in DMEM containing 10% FBS. The resulting suspension was then incubated with a DNase/papain/trypsin solution for 30 min at 37 °C, followed by incubation in a collagenase solution for 1 h. Cells were then seeded at 5000 cells/well in 384-well plates and maintained at 37 °C and 5% CO2 in Complete Neurobasal Medium supplemented with B27/GDNF/BDNF containing 10% FBS. One day later, cultures were switched to serum-free neurobasal medium supplemented with 2% B27 and maintained until neuronal maturity (35–40 DIV). Media were changed every 3 days, and fresh medium was applied 24 h before each experiment. Cells were then treated with fosgo-AM at 1 µM, 100 nM, 10 nM, or 1 nM in a 0.5% DMSO vehicle for 15 min, and subjected to several conditional insults, including 1-methyl-4-phenylpryidinium (MPP+; 500 µM), glutamate (25 µM), lipopolysaccharide (LPS; 1 µM), or hydrogen peroxide (H2O2; 1 µM) for 24 h. After 24 h, 25 µL CTG reagent was added to each well and the plate was incubated with shaking for 15 min. Luminescence measurements to assess relative levels of ATP were performed on an Envision plate reader (PerkinElmer, Waltham, Massachusetts). Data for the vehicle control were set to 100% cell viability, and data for each other group were averaged, normalized to vehicle control, and presented as mean ± SEM. Data were assessed for normality (Shapiro–Wilk) and homoscedasticity (Brown-Forsythe). Statistical analyses were performed using one-way ANOVA with Tukey’s Multiple Comparison test (Prism GraphPad, San Diego, California). A value of p < 0.05 was considered to represent a statistically significant difference.
# [2] = Simulated intestinal and gastric fluid stability; format: in vitro ADME; conditions: 1 h, 5 µM, 37 °C
# Description: Simulated intestinal and gastric fluid studies were contracted to Quintara Discovery Inc, Hayward, California. Simulated intestinal fluid was freshly prepared with 8.7 mM NaOH, 28.65 mM NaH2PO4, 5.85 mM NaCl, with a final pH of 6.8. […] was added to a final concentration of 0.32%. Simulated gastric fluid was prepared with 34.2 mM NaCl. The pH was adjusted to 1.2, and […] was added to a final concentration of 1%. Fosgo-AM was added to the simulated fluids to achieve a concentration of 5 µM. After mixing, samples were transferred to 96-well plates in duplicate (25 μL/well) and incubated at 37 °C. At time 0, 1, 2, and 4 h, 150 μL quench solution (100% acetonitrile with 0.1% formic acid) and bucetin internal standard was added to the appropriate wells. Plates were sealed and centrifuged at 4 °C for 15 min at 4000 rpm. The supernatant was transferred to fresh plates for liquid chromatography/[…] mass spectrometry (LC/MS/MS) analysis. The extent of metabolism was calculated as the disappearance of the test compound compared with the time = 0 incubations.
# IL-6 = IL-6 release in LPS-challenged THP-1 macrophages (HTRF); format: cell-based, human; conditions: 1 µM, 20 min pretreatment, LPS 50 ng/mL 24 h, vs LPS + vehicle
# Description: To determine the effect of fosgo-AM on LPS-induced cytokine release, we sought to determine the levels of interleukin-1β (IL-1β), interleukin-6 (IL-6), and tumor necrosis factor-α (TNF-α) in LPS-challenged THP-1–differentiated macrophages in the presence and absence of fosgo-AM. THP-1 monocytes were grown at 37 °C, 5% CO2 in Roswell Park Memorial Institute (RPMI) medium + 10% FBS until approximately 80% confluent. Cells were seeded in polystyrene-treated 96-well cell culture plates at approximately 50,000 cells/well in 100-µL complete media. 100 µL Phorbol myristate acetate was then added to each well for a final concentration of 100 ng/mL. The plate was then incubated for 3 days at 37 °C, 5% CO2 to prime the monocytes into macrophages. […] For cytokine quantification, cell culture supernatant was assayed by HTRF kits to assess levels of IL-1β (Human IL-1β kit, #62HIL1BPEG, Cisbio, Codolet, France) and IL-6 (Human IL-6 kit, 62HIL06PET, Cisbio, Codolet, France), and by ELISA (Human TNF-α ELISA kit, KHC3011, ThermoFisher, Waltham, Massachusetts) to determine the levels of TNF-α. […] Fluorescence emission at 2 different wavelengths (665 nm and 620 nm) were measured on an Envision plate reader (PerkinElmer, Waltham, Massachusetts), and HTRF ratio of the acceptor and donor emission signals for each well was calculated as follows: HTRF ratio = (665 nm/620 nm) × 10,000. […]
smiles,measurement,setting,value
CCCCCC(=O)N[C@@H](Cc1ccc(O)cc1)C(=O)N[C@H](C(=O)NCCCCCC(N)=O)[C@@H](C)CC [fosgo-AM] (Hexanoyl-Tyr-Ile-[Ahx]-NH2),percentage of recovery of cell viability,[1]; versus H2O2 (1 µM),144%
same,percentage of recovery of cell viability,[1]; versus LPS (1 µM),93%
same,percentage of recovery of cell viability,[1]; versus MPP+ (500 µM),85%
same,percentage of recovery of cell viability,[1]; versus glutamate (25 µM),61%
same,cell viability,"[1]; all tested concentrations (1 nM–1 µM), against all insults (MPP+, glutamate, LPS, H2O2)",Significant improvement in cell viability
same,remaining after exposure,[2]; simulated gastric fluid,7.8%
same,remaining after exposure,[2]; simulated intestinal fluid,0.1%
same,IL-6 release,IL-6,significant decrease
